The values below are quoted from earlier work in patent US20160038468A1 (priority 2013, published 2016).

The structures appear in SMILES notation.

The data set has as its system vaginal infections. As to conditions: daily dosage less than 100 mg/day; cited from earlier work.

As for `CO[C@H]1/C=C/O[C@@]2(C)Oc3c(C)c(O)c4c(O)c(c5c(nc6cc(C)ccn65)c4c3C2=O)NC(=O)/C(C)=C\C=C\[C@H](C)[C@H](O)[C@@H](C)[C@@H](O)[C@@H](C)[C@H](OC(C)=O)[C@@H]1C` [Rifaximin], the “efficacy in the treatment of vaginal infections” value is listed as “efficacious”.
